In this experiment the target is T1, OB-R (Homo sapiens, UniProt P48357).
T1 construct: After confirming via Western that the primary EEC and ESC and endometrial cell lines utilized herein had OB-R; endogenous in cells; host or cells: primary human EEC and ESC; Ishikawa (ECACC 9832301) and HES cell lines
T1 sequence (P48357 22-1165): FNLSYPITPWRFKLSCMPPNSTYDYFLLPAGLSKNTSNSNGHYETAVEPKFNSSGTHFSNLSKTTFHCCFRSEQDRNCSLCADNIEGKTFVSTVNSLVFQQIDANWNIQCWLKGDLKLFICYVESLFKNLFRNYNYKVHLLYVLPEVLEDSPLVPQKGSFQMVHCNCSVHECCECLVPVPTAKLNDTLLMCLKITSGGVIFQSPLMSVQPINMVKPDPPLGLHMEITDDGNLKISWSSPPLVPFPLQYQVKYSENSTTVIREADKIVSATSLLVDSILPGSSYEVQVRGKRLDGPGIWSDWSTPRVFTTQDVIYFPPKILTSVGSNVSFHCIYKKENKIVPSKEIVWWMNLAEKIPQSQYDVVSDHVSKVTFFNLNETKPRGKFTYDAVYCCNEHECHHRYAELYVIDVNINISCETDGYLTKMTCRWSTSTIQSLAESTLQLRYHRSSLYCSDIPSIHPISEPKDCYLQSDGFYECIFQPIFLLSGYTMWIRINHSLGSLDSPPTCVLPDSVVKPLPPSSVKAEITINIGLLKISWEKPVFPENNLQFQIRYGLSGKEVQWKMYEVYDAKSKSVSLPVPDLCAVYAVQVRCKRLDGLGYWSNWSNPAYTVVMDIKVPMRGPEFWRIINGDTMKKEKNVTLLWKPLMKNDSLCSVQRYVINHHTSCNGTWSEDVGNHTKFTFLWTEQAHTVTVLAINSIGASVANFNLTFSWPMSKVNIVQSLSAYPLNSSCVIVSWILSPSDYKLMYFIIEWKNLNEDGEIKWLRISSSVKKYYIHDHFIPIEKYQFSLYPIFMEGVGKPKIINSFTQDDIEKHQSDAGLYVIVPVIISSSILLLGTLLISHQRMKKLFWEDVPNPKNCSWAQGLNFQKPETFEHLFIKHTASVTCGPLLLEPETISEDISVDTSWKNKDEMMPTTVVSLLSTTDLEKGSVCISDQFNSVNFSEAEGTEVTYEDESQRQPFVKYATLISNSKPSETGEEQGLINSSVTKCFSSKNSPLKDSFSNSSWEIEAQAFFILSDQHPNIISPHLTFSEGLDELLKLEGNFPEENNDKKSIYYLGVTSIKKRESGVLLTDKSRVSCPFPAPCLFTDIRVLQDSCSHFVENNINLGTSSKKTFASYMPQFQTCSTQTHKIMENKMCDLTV
The experiment can be described thus: IL-1R tl levels in human endometrial epithelial cells (Western blot). Type of experiment: cell-based. The settings on record: EEC cultures. The method, then:
Primary human endometrial cells (ESC and EEC) were cultured for 5-9 days in DMEM-F12 medium containing 5% fetal bovine serum (FBS), 5 μg/ml insulin, 1% amphopthericin B, 100 μg/ml streptomycin and 100 U/ml penicillin until they were 80% confluent. Two types of endometrial epithelial cell lines, HES (originally derived from a benign proliferative endometrium) and Ishikawa (human endometrial epithelial adenocarcinoma, ECACC 9832301, Wiltshire, England) were cultured under the same conditions described above. The cells were washed twice with 100 mM phosphate saline buffer (PBS), pH 7.2 and cultured for additional 2 days in the same medium but without FBS (basal medium). Cells were washed as described before and cultured in basal medium containing leptin (0, 3, 10 or 62 nM) or IL-1β (0.6, 3 and 10 nM). […]
Endometrial cells were washed with ice-cold PBS and lysed by homogenization on ice with lysis buffer A [[…] Tris, pH 7.4, containing 137 nM NaCl, 2 mM EDTA, 10% glycerol, 50 mM β-glycerophosphate, 1% Nonidet P-40 and a mixture of proteases and phosphatase inhibitors composed of 100 μM antipain, 0.1 mg/ml trypsin inhibitor, protease inhibitor cocktail 1:50 (Sigma), 50 nM NaF, 2 mM phenyl-methylsulfonyl fluoride, and 2 mM sodium orthovanadate]. […] Protein concentrations were determined using the Bradford protein assay (BioRad Laboratories Inc., Hercules, Calif.). […]
For orientation: Immunoblotting shows a protein as a band on a membrane.

Turning to “SRNVIQISNDLENLRDLLHVLAFSKS [LPA-2, 26 amino acid peptide, residues 70-95 of helix III of the human leptin molecule; leptin peptide antagonist]”, the “effect on leptin-induced IL-1R tl levels” value is reported as “inhibited the leptin-induced effects”.
“leptin: human recombinant leptin (R&D Systems), OB-R ligand used as stimulus”: the “IL-1R tl levels after leptin” value was “increase the levels of IL-1R tl”.

The record behind these values is patent publication US8058228B2, “Leptin peptide antagonists” (Boston Biomedical Research Institute, priority 2004, dated 2011).
